Source: ChEMBL document CHEMBL5385878, “Synthesis and structure-activity optimization of 7-azaindoles containing aza-β-amino acids targeting the influenza PB2 subunit” (Eur J Med Chem, 2023)
Calls of active or inactive are those of the source. No cut-off for these calls is given here.

System: Influenza A virus
Test: Antiviral activity against Influenza A/WSN/33 harboring H275Y mutant at 0.3 uM
Format: functional, organism-based

CC(C)(C)N(CC(=O)O)Nc1nc(-c2c[nH]c3ncc(F)cc23)ncc1F
Activity: Active
